Laboratory results as given in US5166066A (priority 1991, dated 1992).

Tests used:
[1] = target: T1, GABAA receptor-Cl- channel complex composed of rat α1, β2, γ2 subunits (Rattus norvegicus, UniProt P18508+P62813+P63138); assay: whole-cell patch clamp of GABA-mediated Cl- currents in transfected HEK 293 cells; type: cell-based; conditions: cell line 2C-1C, HEK 293, holding potential -60 mV
T1 construct: expressed in transfected cells
From the text: GABAA receptors are gated channels which, upon binding to BAGA, allow chlorine ions to pass into the cell. In the presence of benzodiazepines. The GABAA receptor will allow GABA to open the channel and let more chlorine ion into the cell if the benzodiazepine is an agonist or less chlorine ions into the cell if the benzodiazepine is an inverse agonist. The amount of chlorine ions that pass through the GABAA receptor can be directly measured using the patch clamp assay. This assay measures the charge flow into and out of an electrode sealed on the surface of a cell. The flow of chlorine ions entering the cell is measured as a function of the current that leaves the cell to maintain electrical equilibrium within the cell as the gate opens. […] The range of sensitivity of the whole cell patch clamp assay is about 1000 pA and allows for the distinguishing of currents of between 2 and 5 pA.
These tests were carried out by patch-clamp electrophysiology of whole cells. The whole-cell configuration of patch clamp technique was used to record the GABA-mediated Cl-currents in human embryonic kidney cells transfected with GABAA receptor subunits. Patch pipettes were made of borosilicate glass with a resistance of 0.5 to 2 megohms. The cell was bathed in the buffer medium containing (mM) NaCl 135, KCl 5, MgCl2 1, CaCl2 1.8 and Hepes 5, pH 7.2. […]

[2] = tested on: recombinant receptors composed of α6 -, β2 - and β2-subunits; conditions: transiently expressed in cultured mammalian cells; cited from earlier work
[3] = tested on: α1 - and β1 -subunits of the bovine brain GABAA receptor; conditions: CHO cells, dexamethasone-inducible promoter; cited from earlier work

T1 sequence (P62813 28-455): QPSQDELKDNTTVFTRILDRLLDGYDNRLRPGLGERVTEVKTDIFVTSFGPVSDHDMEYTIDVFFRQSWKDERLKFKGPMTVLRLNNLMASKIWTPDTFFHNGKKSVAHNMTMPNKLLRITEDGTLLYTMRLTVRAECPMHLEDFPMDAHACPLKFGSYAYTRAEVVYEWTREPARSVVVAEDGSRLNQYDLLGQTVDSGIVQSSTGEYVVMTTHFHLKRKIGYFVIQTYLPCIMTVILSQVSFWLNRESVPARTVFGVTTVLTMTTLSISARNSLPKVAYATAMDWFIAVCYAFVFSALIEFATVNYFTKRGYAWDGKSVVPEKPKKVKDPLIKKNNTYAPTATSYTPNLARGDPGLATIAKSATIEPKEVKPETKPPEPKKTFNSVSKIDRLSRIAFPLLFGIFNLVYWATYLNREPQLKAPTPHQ
T1 sequence (P63138 26-474): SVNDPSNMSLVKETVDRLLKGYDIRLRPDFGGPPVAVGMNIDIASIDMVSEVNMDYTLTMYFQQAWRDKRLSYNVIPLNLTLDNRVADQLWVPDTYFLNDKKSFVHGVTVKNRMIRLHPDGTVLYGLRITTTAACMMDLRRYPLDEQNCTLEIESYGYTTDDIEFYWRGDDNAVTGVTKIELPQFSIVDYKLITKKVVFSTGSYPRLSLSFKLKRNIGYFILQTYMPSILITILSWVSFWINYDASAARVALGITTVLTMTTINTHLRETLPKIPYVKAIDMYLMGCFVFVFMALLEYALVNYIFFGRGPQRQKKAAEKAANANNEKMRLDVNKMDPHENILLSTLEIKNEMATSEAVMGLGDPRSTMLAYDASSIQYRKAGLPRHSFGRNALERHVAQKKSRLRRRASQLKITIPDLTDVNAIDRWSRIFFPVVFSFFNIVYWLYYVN
T1 sequence (P18508 39-466): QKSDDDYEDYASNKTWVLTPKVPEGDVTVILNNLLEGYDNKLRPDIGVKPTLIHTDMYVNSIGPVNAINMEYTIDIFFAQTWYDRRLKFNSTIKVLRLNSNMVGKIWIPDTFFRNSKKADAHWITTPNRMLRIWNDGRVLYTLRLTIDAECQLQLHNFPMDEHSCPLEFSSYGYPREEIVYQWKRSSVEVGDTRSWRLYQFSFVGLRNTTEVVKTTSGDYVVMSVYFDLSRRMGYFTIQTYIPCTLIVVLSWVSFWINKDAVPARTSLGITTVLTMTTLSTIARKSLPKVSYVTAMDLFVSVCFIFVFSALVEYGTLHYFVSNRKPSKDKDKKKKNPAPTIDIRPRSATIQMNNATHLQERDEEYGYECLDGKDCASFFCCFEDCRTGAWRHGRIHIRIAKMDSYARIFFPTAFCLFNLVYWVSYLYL

NCCCC(=O)O [GABA, γ-Aminobutyric acid]
response of cells to drug (Cl- current) [1]: responsive

CCOC(=O)c1ncn2c1CN(C)C(=O)c1cc(F)ccc1-2 [Ro15-1788]
binding affinity to recombinant receptors [2]: high affinity

CN1CCc2cc3c(cc2[C@H]1[C@@H]1OC(=O)c2c1ccc1c2OCO1)OCO3 [bicuculline]
effect on current response of α1β1 GABAA receptors [3]: reversibly blocked

picrotoxin
effect on current response of α1β1 GABAA receptors [3]: reversibly blocked

NCc1cc(=O)[nH]o1 [muscimol]
binding affinity to recombinant receptors [2]: high affinity

CCOC(=O)c1ncn2c1CN(C)C(=O)c1cc(N=[N+]=[N-])ccc1-2 [Ro15-4513]
binding affinity to recombinant receptors [2]: high affinity
